In patent US8921546B2, “Imidazolothiazole compounds for the treatment of disease” (Ambit Biosciences Corporation, priority 2006, dated 2014) one finds Kd and IC50 data, which are given here for 17 molecules.

One assay concerns the target T1, KIT (Homo sapiens, UniProt P10721).
T1 construct: made in house
Briefly: Binding constant (Kd) measurement, phage-displayed kinase competition binding assay, KIT. In outline:
(§1)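 Competition binding used human kinases fused to T7 phage and immobilized ATP-site ligands. Compound binding blocks kinase capture on the solid support. Bound phage-kinase was quantified by plaque assay or qPCR of the phage genome to give Kd.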

The target of a further assay is T2, CSF1R (Homo sapiens, UniProt P07333).
T2 construct: made in house
Put plainly: Binding constant (Kd) measurement, phage-displayed kinase competition binding assay, CSF1R. In a few lines:
as §1

The test system of a further assay is MV4-11 cells. Put plainly: Cellular proliferation assay (MTS), MV4-11. It is filed as cell-based. Conditions: Homo sapiens; for pIC50: MV4-11 cells, 72 hour incubation, MTS, read-out: Cellular Assay MV-proliferation IC50. In outline: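 FLT3-ITD MV4-11 cells, 10,000/well in DMEM with 0.5% serum, exposed to compounds 3 days at 37 °C, 5% CO2. Viability read colorimetrically after 2 h MTS tetrazolium reduction; WT-FLT3 RS4-11 cells (20,000/well, RPMI 0.5% serum, 2 days) serve as control.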

For another assay, the target named is T3, FLT3 (Homo sapiens, UniProt P36888).
T3 construct: made in house
T3 sequence (P36888 27-993): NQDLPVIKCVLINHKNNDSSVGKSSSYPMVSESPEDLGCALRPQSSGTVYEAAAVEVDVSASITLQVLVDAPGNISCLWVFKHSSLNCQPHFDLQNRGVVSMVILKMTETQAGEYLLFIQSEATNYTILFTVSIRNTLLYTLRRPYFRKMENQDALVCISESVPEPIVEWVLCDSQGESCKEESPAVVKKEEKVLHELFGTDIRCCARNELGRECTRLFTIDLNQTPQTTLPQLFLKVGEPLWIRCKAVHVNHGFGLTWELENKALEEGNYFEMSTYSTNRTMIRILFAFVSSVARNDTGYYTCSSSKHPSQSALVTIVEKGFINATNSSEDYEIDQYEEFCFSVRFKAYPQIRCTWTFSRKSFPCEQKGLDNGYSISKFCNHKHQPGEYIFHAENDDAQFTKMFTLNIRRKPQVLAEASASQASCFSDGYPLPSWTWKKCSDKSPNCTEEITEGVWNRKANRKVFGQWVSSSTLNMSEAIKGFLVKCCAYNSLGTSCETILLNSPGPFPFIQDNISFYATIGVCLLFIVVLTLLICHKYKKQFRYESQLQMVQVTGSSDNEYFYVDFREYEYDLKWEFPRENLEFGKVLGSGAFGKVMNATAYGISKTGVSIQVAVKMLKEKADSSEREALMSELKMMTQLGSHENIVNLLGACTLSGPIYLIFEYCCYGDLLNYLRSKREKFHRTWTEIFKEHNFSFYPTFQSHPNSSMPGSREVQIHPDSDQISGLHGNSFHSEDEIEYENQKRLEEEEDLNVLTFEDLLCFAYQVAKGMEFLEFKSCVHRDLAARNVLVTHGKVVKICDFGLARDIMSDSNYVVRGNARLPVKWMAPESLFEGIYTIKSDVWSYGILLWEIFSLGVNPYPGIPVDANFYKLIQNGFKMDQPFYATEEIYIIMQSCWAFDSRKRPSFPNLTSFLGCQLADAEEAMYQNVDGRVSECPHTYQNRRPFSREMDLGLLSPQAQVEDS
Put plainly: Binding constant (Kd) measurement, phage-displayed kinase competition binding assay, FLT3. In outline:
as §1

[1] abbreviates: read-out: Binding Assay FLT3 Kd.

Structures are written as SMILES. pIC50, pKd: −log10 of the molar value. Where a name gives a salt, the structure may show the parent alone. Read-outs that look alike come from different tables or passages of the source.

T2 sequence (P07333 20-972): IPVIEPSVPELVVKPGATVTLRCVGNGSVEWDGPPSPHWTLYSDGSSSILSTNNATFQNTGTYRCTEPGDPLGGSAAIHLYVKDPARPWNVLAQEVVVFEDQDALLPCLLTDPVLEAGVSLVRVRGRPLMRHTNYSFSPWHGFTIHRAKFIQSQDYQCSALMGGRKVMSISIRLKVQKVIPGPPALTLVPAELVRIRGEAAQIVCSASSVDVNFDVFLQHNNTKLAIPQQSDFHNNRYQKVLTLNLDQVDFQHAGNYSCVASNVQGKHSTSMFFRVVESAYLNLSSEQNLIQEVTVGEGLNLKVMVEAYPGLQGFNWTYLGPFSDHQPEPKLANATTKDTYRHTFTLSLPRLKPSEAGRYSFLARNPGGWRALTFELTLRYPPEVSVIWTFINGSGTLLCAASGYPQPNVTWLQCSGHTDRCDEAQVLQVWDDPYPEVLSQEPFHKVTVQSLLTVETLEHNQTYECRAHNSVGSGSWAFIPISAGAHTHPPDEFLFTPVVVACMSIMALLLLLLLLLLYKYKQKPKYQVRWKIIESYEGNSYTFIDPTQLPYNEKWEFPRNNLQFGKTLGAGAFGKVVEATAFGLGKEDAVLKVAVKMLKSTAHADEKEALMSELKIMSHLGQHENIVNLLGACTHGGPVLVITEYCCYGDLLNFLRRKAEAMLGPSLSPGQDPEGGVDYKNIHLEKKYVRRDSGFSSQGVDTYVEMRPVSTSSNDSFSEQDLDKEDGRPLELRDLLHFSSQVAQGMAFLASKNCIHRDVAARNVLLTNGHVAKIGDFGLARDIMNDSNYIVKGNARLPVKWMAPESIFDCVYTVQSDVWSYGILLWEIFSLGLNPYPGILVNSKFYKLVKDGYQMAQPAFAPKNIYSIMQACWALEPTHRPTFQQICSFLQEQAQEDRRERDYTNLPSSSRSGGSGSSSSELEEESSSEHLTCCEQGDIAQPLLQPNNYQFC
T1 sequence (P10721 26-976): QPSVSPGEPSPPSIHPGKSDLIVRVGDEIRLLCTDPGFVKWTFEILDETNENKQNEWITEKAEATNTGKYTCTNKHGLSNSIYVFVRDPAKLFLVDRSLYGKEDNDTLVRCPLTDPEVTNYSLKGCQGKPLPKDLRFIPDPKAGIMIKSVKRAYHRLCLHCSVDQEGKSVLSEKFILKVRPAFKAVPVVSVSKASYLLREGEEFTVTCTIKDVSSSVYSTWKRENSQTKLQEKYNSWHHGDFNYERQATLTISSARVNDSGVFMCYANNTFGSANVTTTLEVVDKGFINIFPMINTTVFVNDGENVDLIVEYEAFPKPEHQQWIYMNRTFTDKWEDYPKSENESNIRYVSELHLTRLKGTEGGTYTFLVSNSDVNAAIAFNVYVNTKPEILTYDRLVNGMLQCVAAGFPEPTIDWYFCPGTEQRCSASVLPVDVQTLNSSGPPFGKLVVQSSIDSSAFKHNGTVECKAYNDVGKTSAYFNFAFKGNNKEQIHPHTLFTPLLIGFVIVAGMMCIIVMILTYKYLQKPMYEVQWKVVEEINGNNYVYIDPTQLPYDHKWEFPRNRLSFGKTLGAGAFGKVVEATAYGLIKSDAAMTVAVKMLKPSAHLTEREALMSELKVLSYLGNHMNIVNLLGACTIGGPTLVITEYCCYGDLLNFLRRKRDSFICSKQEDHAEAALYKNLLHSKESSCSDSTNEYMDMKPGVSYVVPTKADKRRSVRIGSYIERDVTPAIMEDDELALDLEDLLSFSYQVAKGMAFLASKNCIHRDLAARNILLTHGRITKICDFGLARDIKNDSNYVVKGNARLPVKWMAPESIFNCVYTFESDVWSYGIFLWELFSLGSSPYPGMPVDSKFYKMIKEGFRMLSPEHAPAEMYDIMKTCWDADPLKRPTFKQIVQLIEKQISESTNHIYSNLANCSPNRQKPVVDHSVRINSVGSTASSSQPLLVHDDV

As to `CCN(CC)CCNC(=O)CCc1ccc2c(c1)sc1nc(-c3ccc(NC(=O)Nc4cc(C(C)(C)C)on4)cc3)cn12` [Compound C12, 3-(2-{4-[3-(5-tert-butyl-isoxazol-3-yl)-ureido]-phenyl}-benzo[d]imidazo[2,1-b]thiazol-7-yl)-N-(2-diethylamino-ethyl)-propionamide hydrochloride], the pKd at KIT is more than 8.00; on CSF1R it was 7.00 to 8.00; on FLT3, more than 8.00. Further, in the assay on MV4-11 cells, the pIC50 is more than 8.00.
For the molecule `O=C(Nc1ccc(-c2cn3c(n2)sc2cc(OCCN4CCOCC4)ccc23)cc1)Nc1ccc2c(c1)OCCO2` [Compound F1, 1-(2,3-Dihydro-benzo[1,4]dioxin-6-yl)-3-{4-[7-(2-morpholin-4-yl-ethoxy)-benzo[d]imidazo[2,1-b]thiazol-2-yl]-phenyl}-urea], the pKd at KIT was more than 8.00; on CSF1R, 6.00 to 7.00; on FLT3 (setting [1]), more than 8.00. Moreover, the pIC50 with MV4-11 cells was more than 8.00.
On to `CC(C)(C)c1cc(NC(=O)Nc2ccc(-c3cn4c(n3)sc3cc(CCC(=O)N5CCOCC5)ccc34)cc2)no1` [Compound C7, N-(5-tert-butyl-isoxazol-3-yl)-N′-{4-[7-(3-morpholino-4-yl-3-oxo-propyl)imidazo[2,1-b][1,3]benzothiazol-2-yl]phenyl}urea], for which the values for the pKd on KIT, at CSF1R and on FLT3 (setting [1]) were more than 8.00, 7.00 to 8.00 and more than 8.00, respectively. In addition, in the assay on MV4-11 cells, the pIC50 was more than 8.00.
Regarding `CCOC(=O)c1ccc2c(c1)sc1nc(-c3cccc(NC(=O)Nc4cc(C(C)(C)C)on4)c3)cn12` [Compound B14, 2-{3-[3-(5-tert-Butyl-isoxazol-3-yl)-ureido]-phenyl}-imidazo[2,1-b][1,3]benzothiazole-7-carboxylic acid ethyl ester], the pKd at KIT, on CSF1R and on FLT3 (setting [1]) was less than 6.00 throughout. For the same molecule, in the assay with MV4-11 cells, the pIC50 was less than 7.00.
On to `CCN1CCN(C(=O)c2ccc3c(c2)sc2nc(-c4ccc(NC(=O)Nc5cc(C(C)(C)C)on5)cc4)cn23)CC1` [Compound C23, 1-(5-tert-butyl-isoxazol-3-yl)-3-{4-[7-(4-ethyl-piperazine-1-carbonyl)-imidazo[2,1-b][1,3]benzothiazol-2-yl]-phenyl}-urea hydrochloride], for which the results for the pKd at KIT, at CSF1R and on FLT3 (setting [1]) were more than 8.00, 7.00 to 8.00 and more than 8.00, respectively. The IC50 with MV4-11 cells (MV4-11, 72 h, read-out: Cellular Assay MV-proliferation IC50 (nM)) was less than 10 nM.
`CC(C)(C)c1ccc(NC(=O)Nc2ccc(-c3cn4c(n3)sc3cc(OCCN5CCOCC5)ccc34)cc2)cc1` [Compound F2, 1-(4-tert-Butyl-phenyl)-3-{4-[7-(2-morpholin-4-yl-ethoxy)-benzo[d]imidazo[2,1-b]thiazol-2-yl]-phenyl}-urea]: the figures for the pKd on KIT, at CSF1R and at FLT3 (setting [1]) were more than 8.00, 7.00 to 8.00 and more than 8.00, respectively. Also, the pIC50 in the assay with MV4-11 cells is more than 8.00.
With `CC(C)(C)c1cc(NC(=O)Nc2ccc(-c3cn4c(n3)sc3cc(CC(=O)NCCN5CCCCC5)ccc34)cc2)no1` [Compound C14, 2-(2-{4-[3-(5-tert-butyl-isoxazol-3-yl)-ureido]-phenyl}-benzo[d]imidazo[2,1-b]thiazol-7-yl)-N-(2-piperidin-1-yl-ethyl)-acetamide hydrochloride], the pKd on KIT is more than 8.00; on CSF1R, 7.00 to 8.00; at FLT3, more than 8.00. Moreover, the pIC50 in the assay with MV4-11 cells was more than 8.00.
Consider `CC(C)(C)c1cc(NC(=O)Nc2ccc(-c3cn4c(n3)sc3cc(CC(=O)NCCN5CCOCC5)ccc34)cc2)no1` [Compound C13, 2-(2-{4-[3-(5-tert-butyl-isoxazol-3-yl)-ureido]-phenyl}-benzo[d]imidazo[2,1-b]thiazol-7-yl)-N-(2-morpholin-4-yl-ethyl)-acetamide hydrochloride], for which the pKd on KIT was more than 8.00; on CSF1R, 7.00 to 8.00; at FLT3 it was more than 8.00. Further, the pIC50 with MV4-11 cells is more than 8.00.
Take `CC(C)(C)c1cc(NC(=O)Nc2cccc(-c3cn4c(n3)sc3cc(OCCN5CCOCC5)ccc34)c2)no1` [Compound B13, N-(5-tert-butyl-isoxazol-3-yl)-N′-{3-[7-(2-morpholin-4-yl-ethoxy)imidazo[2,1-b][1,3]benzothiazol-2-yl]phenyl}urea]: the pKd on KIT was less than 6.00; at CSF1R it was less than 6.00; on FLT3 (setting [1]) it was 6.00 to 7.00. In the assay on MV4-11 cells, the pIC50 is less than 7.00.
`CCN1CCN(C(=O)CCc2ccc3c(c2)sc2nc(-c4ccc(NC(=O)Nc5cc(C(C)(C)C)on5)cc4)cn23)CC1` [Compound C5, N-(5-tert-Butyl-isoxazol-3-yl)-N′-(4-{7-[3-(4-ethyl-piperazin-1-yl)-3-oxo-propyl]imidazo[2,1-b][1,3]benzothiazol-2-yl}phenyl)urea]: the pKd on KIT was more than 8.00; on CSF1R, 7.00 to 8.00; on FLT3 (setting [1]), more than 8.00. In the assay on MV4-11 cells, the pIC50 is more than 8.00.
Take `CC(C)(C)c1cc(NC(=O)Nc2ccc(-c3cn4c(n3)sc3cc(CCN5CCOCC5)ccc34)cc2)no1` [Compound D5, 1-(5-tert-Butyl-isoxazol-3-yl)-3-{4-[7-(2-morpholin-4-yl-ethyl)-imidazo[2,1-b][1,3]benzothiazol-2-yl]-phenyl}-urea hydrochloride]: the pKd on KIT, on CSF1R and on FLT3 was more than 8.00 each time. The pIC50 in the assay with MV4-11 cells was more than 8.00.
Regarding `CC(C)(C)c1cc(NC(=O)Nc2ccc(-c3cn4c(n3)sc3cc(CC(=O)N5CCOCC5)ccc34)cc2)no1` [Compound C18, 1-(5-tert-butyl-isoxazol-3-yl)-3-{4-[7-(2-morpholin-4-yl-2-oxo-ethyl)-imidazo[2,1-b][1,3]benzothiazol-2yl]-phenyl}-urea], the pKd on KIT was more than 8.00; at CSF1R, 7.00 to 8.00; at FLT3, more than 8.00. Moreover, the pIC50 in the assay on MV4-11 cells is more than 8.00.
With `Cc1nc(C(F)(F)F)c(C(=O)Nc2ccc(-c3cn4c(n3)sc3cc(OCCN5CCOCC5)ccc34)cc2)s1` [Compound E3, 2-methyl-4-trifluoromethyl-thiazole-5-carboxylic acid {4-[7-(2-morpholin-4-yl-ethoxy)-benzo[d]imidazo[2,1-b]thiazol-2-yl]-phenyl}-amide], the pKd on KIT, at CSF1R and on FLT3 (setting [1]) was less than 6.00 throughout. Also, the pIC50 in the assay with MV4-11 cells was less than 7.00.
As to `Cc1nc2cc(NC(=O)Nc3ccc(-c4cn5c(n4)sc4cc(OCCN6CCOCC6)ccc45)cc3)ccc2s1` [Compound F8, 1-(2-methyl-benzothiazol-5-yl)-3-{4-[7-(2-morpholin-4-yl-ethoxy)-benzo[d]imidazo[2,1-b]thiazol-2-yl]-phenyl}-urea], the pKd on KIT is 7.00 to 8.00; on CSF1R, 6.00 to 7.00; at FLT3 (setting [1]), more than 8.00. Besides, the pIC50 in the assay on MV4-11 cells was more than 8.00.
As to `CC(C)(C)c1cc(NC(=O)Nc2ccc(-c3cn4c(n3)sc3cc(C(=O)O)ccc34)cc2)no1` [Compound C27, Sodium 2-{4-[3-(5-tert-butyl-isoxazol-3-yl)-ureido]-phenyl}-benzo[d]imidazo[2,1-b]thiazole-7-carboxylate], the pKd on KIT is more than 8.00; at CSF1R it was 7.00 to 8.00; at FLT3 (setting [1]), more than 8.00. In addition, the pIC50 in the assay on MV4-11 cells was more than 8.00.
On to `CC(C)(C)c1cc(NC(=O)Nc2ccc(-c3cn4c(n3)sc3cc(C(=O)NCCN5CCCC5)ccc34)cc2)no1` [Compound C21, 2-{4-[3-(5-tert-butyl-isoxazol-3-yl)-ureido]-phenyl}-imidazo[2,1-b][1,3]benzothiazole-7-carboxylic Acid (2-Pyrrolidin-1-yl-ethyl)-amide hydrochloride], for which the pKd at KIT is more than 8.00; on CSF1R, 7.00 to 8.00; at FLT3 it was more than 8.00. Also, in the assay on MV4-11 cells, the pIC50 is more than 8.00.
Turning to `CCOC(=O)c1ccc2c(c1)sc1nc(-c3ccc(NC(=O)Nc4cc(C(C)(C)C)on4)cc3)cn12` [Compound C26, 2-{4-[3-(5-tert-Butyl-isoxazol-3-yl)-ureido]-phenyl}-imidazo[2,1-b][1,3]benzothiazole-7-carboxylic acid ethyl ester], the negative logarithm of the Kd (pKd) on KIT is 7.00 to 8.00; on CSF1R it was 6.00 to 7.00; on FLT3 it was more than 8.00. In addition, the pIC50 in the assay with MV4-11 cells is more than 8.00.
